In the NIST ThermoML archive (doi:10.1016/j.jct.2006.08.003):

Test: mn = molality of the nth substance listed, in mol/kg
Conditions: 298.15 K, 101 kPa, Liquid; for speed of sound: Sing-around technique in a fixed-path interferometer

CC(=O)[O-].[Na+] [sodium ethanoate] + O
Conditions | speed of sound [m/s]
m1 = 0.5 | 1547.6
m1 = 1 | 1590.4
m1 = 2 | 1658
m1 = 4 | 1761.8

N[C@@H](CO)C(=O)O [L-serine] + O
Conditions | mass density [kg/m3] | speed of sound [m/s]
m1 = 0.1015 | 1001.52 | 1503
m1 = 0.1508 | 1003.67 | 1506.1
m1 = 0.1958 | 1005.62 | 1509
m1 = 0.2564 | 1008.21 | 1512.7
m1 = 0.2888 | 1009.59 | 1514.9
m1 = 0.3655 | 1012.8 | 1519.8

CC(=O)[O-].CC(=O)[O-].[Mg+2] [magnesium acetate] + O
Conditions | speed of sound [m/s]
m1 = 0.5 | 1571.7
m1 = 1 | 1630.4
m1 = 1.5 | 1680.2
m1 = 2 | 1724.4

C[C@@H](O)[C@H](N)C(=O)O [L-threonine] + O
Conditions | mass density [kg/m3] | speed of sound [m/s]
m1 = 0.04618 | 998.993 | –
m1 = 0.1013 | 1001.29 | 1504.7
m1 = 0.1405 | 1002.91 | 1507.7
m1 = 0.1798 | 1004.51 | 1510.9
m1 = 0.2227 | 1006.26 | 1514.3
m1 = 0.2524 | 1007.45 | 1516.6
m1 = 0.2755 | 1008.38 | 1518.7
